Laboratory results published in ChEMBL document CHEMBL1201862, “PubChem BioAssay data set” (2004).
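Five compound concentrations were applied to cells in 96-well plates for 48 hours; endpoints were derived by simple linear interpolation of the resulting dose-response curve. GI50 marks 50% less growth.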 The source made the active and inactive calls. Cut-off read from the data, not from the text of the source: active = GI50 up to about 1.1 µM and inactive = higher.

Tests used:
Assay in all cases: NCI tumour cell line growth inhibition, 48 h
OVCAR-3 = system: OVCAR-3
HCT-116 = system: HCT-116
TK-10 = system: TK-10
CCRF-CEM = system: CCRF-CEM
SF-539 = system: SF-539
HT-29 = system: HT-29
OVCAR-8 = system: OVCAR-8
NCI-H23 = system: NCI-H23
EKVX = system: EKVX
MOLT-4 = system: MOLT-4
U-251 = system: U-251
NCI-H226 = system: NCI-H226
RPMI-8226 = system: RPMI-8226
UACC-62 = system: UACC-62

Structure (SMILES) | GI50 (OVCAR-3) | GI50 (HCT-116) | GI50 (TK-10) | GI50 (CCRF-CEM) | GI50 (SF-539) | GI50 (HT-29) | GI50 (OVCAR-8) | GI50 (NCI-H23) | GI50 (EKVX) | GI50 (MOLT-4) | GI50 (U-251) | GI50 (NCI-H226) | GI50 (RPMI-8226) | GI50 (UACC-62)
COC(=O)C(CCCC1(c2ccccc2)OCCO1)C(C)=O (configuration not stated) | > 100 µM (inactive) | > 100 µM (inactive) | > 100 µM (inactive) | > 100 µM (inactive) | > 100 µM (inactive) | > 100 µM (inactive) | > 100 µM (inactive) | > 100 µM (inactive) | > 100 µM (inactive) | > 100 µM (inactive) | > 100 µM (inactive) | 40.9 µM (inactive) | – | –
COc1ccc(C(=O)C(c2ccc(OC)cc2)C2(O)C(=O)Nc3c(Cl)cc(Cl)cc32)cc1 (configuration not stated) | 22.8 µM (inactive) | – | 22.5 µM (inactive) | 15.6 µM (inactive) | – | 19.4 µM (inactive) | 23.7 µM (inactive) | 19.5 µM (inactive) | 18.7 µM (inactive) | 9.35 µM (inactive) | 33.1 µM (inactive) | 18.4 µM (inactive) | 11.9 µM (inactive) | –
C/C=C(/I)CBr | – | 13.9 µM (inactive) | > 10 µM (inactive) | 3.78 µM (inactive) | 17 µM (inactive) | – | 19.4 µM (inactive) | 16.7 µM (inactive) | 21.7 µM (inactive) | 15.9 µM (inactive) | > 10 µM (inactive) | 20.6 µM (inactive) | 10.4 µM (inactive) | 15.5 µM (inactive)
O=C1OC(CC(=O)c2ccccc2Cl)C(Cl)=C1Cl (configuration not stated) | > 100 µM (inactive) | > 100 µM (inactive) | > 100 µM (inactive) | 48.3 µM (inactive) | > 100 µM (inactive) | > 100 µM (inactive) | > 100 µM (inactive) | > 100 µM (inactive) | > 100 µM (inactive) | > 100 µM (inactive) | > 100 µM (inactive) | > 100 µM (inactive) | > 100 µM (inactive) | > 100 µM (inactive)
CSCSCC(CO)NC(=O)/C=C/c1c(C)nc(O)nc1O (configuration not stated) | 26.4 µM (inactive) | > 100 µM (inactive) | > 100 µM (inactive) | 44.4 µM (inactive) | > 100 µM (inactive) | > 100 µM (inactive) | > 100 µM (inactive) | > 100 µM (inactive) | 57.1 µM (inactive) | 96.6 µM (inactive) | 64.3 µM (inactive) | > 100 µM (inactive) | > 100 µM (inactive) | > 100 µM (inactive)
CCOC(=O)NC(=O)c1cn(CCN2CCN(C(=O)NCCCCCCNC(=O)N3CCN(CCn4cc(C(=O)NC(=O)OCC)c(=O)[nH]c4=O)CC3)CC2)c(=O)[nH]c1=O | > 100 µM (inactive) | > 100 µM (inactive) | > 100 µM (inactive) | – | > 100 µM (inactive) | > 100 µM (inactive) | > 100 µM (inactive) | > 100 µM (inactive) | > 100 µM (inactive) | – | > 100 µM (inactive) | – | > 100 µM (inactive) | > 100 µM (inactive)
NS(=O)(=O)c1cc2c(cc1Cl)NC(C(=O)c1cc(=O)c3ccc(O)cc3o1)=NS2(=O)=O | > 100 µM (inactive) | > 100 µM (inactive) | > 100 µM (inactive) | > 100 µM (inactive) | > 100 µM (inactive) | > 100 µM (inactive) | > 100 µM (inactive) | > 100 µM (inactive) | > 100 µM (inactive) | > 100 µM (inactive) | > 100 µM (inactive) | > 100 µM (inactive) | > 100 µM (inactive) | > 100 µM (inactive)
C=CCOC(C)n1c(C)cc(=O)n(C(C)OCC=C)c1=O (configuration not stated) | – | > 100 µM (inactive) | – | > 100 µM (inactive) | > 100 µM (inactive) | > 100 µM (inactive) | > 100 µM (inactive) | > 100 µM (inactive) | > 100 µM (inactive) | > 100 µM (inactive) | > 100 µM (inactive) | > 100 µM (inactive) | > 100 µM (inactive) | > 100 µM (inactive)
Cc1ccc(C)c(N2C(=O)C(=O)C(c3nc4ccccc4o3)/C(=N/N)C2=O)c1 (configuration not stated) | > 100 µM (inactive) | > 100 µM (inactive) | > 100 µM (inactive) | > 100 µM (inactive) | > 100 µM (inactive) | > 100 µM (inactive) | > 100 µM (inactive) | > 100 µM (inactive) | > 100 µM (inactive) | > 100 µM (inactive) | > 100 µM (inactive) | > 100 µM (inactive) | – | > 100 µM (inactive)
Cc1cc2c(cc1C)[n+]([O-])c(-c1c(Cl)cccc1Cl)c(N)[n+]2[O-] | 28.2 µM (inactive) | – | > 100 µM (inactive) | – | 27.9 µM (inactive) | 39.6 µM (inactive) | 38.8 µM (inactive) | 24.1 µM (inactive) | 46.3 µM (inactive) | 26.2 µM (inactive) | 33.3 µM (inactive) | 23.9 µM (inactive) | 67.5 µM (inactive) | 23.2 µM (inactive)
O=C1C=C(c2c(O)ccc3ccccc23)c2cc(O)ccc2C1=O | 10.7 µM (inactive) | 16 µM (inactive) | 20.9 µM (inactive) | – | 16.2 µM (inactive) | 25.3 µM (inactive) | 11.4 µM (inactive) | 15.1 µM (inactive) | 21.2 µM (inactive) | 3.09 µM (inactive) | 14.8 µM (inactive) | 20.9 µM (inactive) | 4.47 µM (inactive) | 4.43 µM (inactive)
COc1cc(/C=C\c2ccc(OC(C)=O)cc2)cc(OC)c1OC | 3.29 µM (inactive) | 4.43 µM (inactive) | – | 4.06 µM (inactive) | 2.26 µM (inactive) | 10.8 µM (inactive) | 4.03 µM (inactive) | 0.352 µM (active) | 10 µM (inactive) | 3.78 µM (inactive) | 2.37 µM (inactive) | 33.7 µM (inactive) | 0.587 µM (active) | 4.85 µM (inactive)
COc1ccc(/C=C/C(=O)c2c(-c3ccccc3)nn(C)c(=O)c2N2CC2C)cc1 (configuration not stated) | 24.3 µM (inactive) | 36.1 µM (inactive) | 41.1 µM (inactive) | 22.9 µM (inactive) | 39.1 µM (inactive) | 32.4 µM (inactive) | 32.4 µM (inactive) | 19 µM (inactive) | 19.6 µM (inactive) | 25.5 µM (inactive) | 27.9 µM (inactive) | 45.3 µM (inactive) | – | 19 µM (inactive)
O=C(O)C12C=CC(C1)c1ccccc12 (configuration not stated) | > 100 µM (inactive) | > 100 µM (inactive) | > 100 µM (inactive) | > 100 µM (inactive) | – | > 100 µM (inactive) | > 100 µM (inactive) | > 100 µM (inactive) | – | > 100 µM (inactive) | > 100 µM (inactive) | > 100 µM (inactive) | > 100 µM (inactive) | > 100 µM (inactive)
CCN(CC)CC(C(=O)Nc1c(C)cccc1C)/C(C)=N/NC(N)=S (configuration not stated) | > 100 µM (inactive) | > 100 µM (inactive) | > 100 µM (inactive) | > 100 µM (inactive) | > 100 µM (inactive) | > 100 µM (inactive) | > 100 µM (inactive) | > 100 µM (inactive) | > 100 µM (inactive) | > 100 µM (inactive) | > 100 µM (inactive) | > 100 µM (inactive) | > 100 µM (inactive) | > 100 µM (inactive)
CC(Oc1cc2oc(=O)cc(-c3ccccc3)c2cc1Cl)C(=O)O (configuration not stated) | > 100 µM (inactive) | > 100 µM (inactive) | > 100 µM (inactive) | > 100 µM (inactive) | > 100 µM (inactive) | > 100 µM (inactive) | > 100 µM (inactive) | > 100 µM (inactive) | > 100 µM (inactive) | > 100 µM (inactive) | > 100 µM (inactive) | > 100 µM (inactive) | – | > 100 µM (inactive)
CCOC(=O)c1ncn2c1[nH]c(=O)c1ccccc12 | > 100 µM (inactive) | > 100 µM (inactive) | > 100 µM (inactive) | > 100 µM (inactive) | > 100 µM (inactive) | > 100 µM (inactive) | > 100 µM (inactive) | > 100 µM (inactive) | > 100 µM (inactive) | > 100 µM (inactive) | > 100 µM (inactive) | > 100 µM (inactive) | > 100 µM (inactive) | > 100 µM (inactive)
O=C1OC(=O)C2C3CCC(O3)C12 (configuration not stated) | > 100 µM (inactive) | > 100 µM (inactive) | > 100 µM (inactive) | > 100 µM (inactive) | > 100 µM (inactive) | > 100 µM (inactive) | > 100 µM (inactive) | > 100 µM (inactive) | > 100 µM (inactive) | > 100 µM (inactive) | > 100 µM (inactive) | > 100 µM (inactive) | > 100 µM (inactive) | > 100 µM (inactive)
CC1NOC(=O)C1/N=N/c1cccc(Cl)c1 (configuration not stated) | 22.5 µM (inactive) | 31.7 µM (inactive) | 42.8 µM (inactive) | 21.4 µM (inactive) | 34.3 µM (inactive) | 27.4 µM (inactive) | 44.8 µM (inactive) | 99.5 µM (inactive) | 37.5 µM (inactive) | 24.5 µM (inactive) | 25.2 µM (inactive) | 32.3 µM (inactive) | – | 34.6 µM (inactive)
CS/C(=N\C(=S)Nc1ccccc1)Nc1ccccc1 | 21 µM (inactive) | > 10 µM (inactive) | 14.2 µM (inactive) | – | > 10 µM (inactive) | 6.37 µM (inactive) | 25.4 µM (inactive) | 29.4 µM (inactive) | > 10 µM (inactive) | 12.9 µM (inactive) | 19.8 µM (inactive) | 18.5 µM (inactive) | 12.8 µM (inactive) | 4.58 µM (inactive)
CC1=NN=C(NCCN(C)C)C/C1=C/c1ccccc1Cl | > 100 µM (inactive) | > 100 µM (inactive) | > 100 µM (inactive) | – | > 100 µM (inactive) | 45.1 µM (inactive) | > 100 µM (inactive) | > 100 µM (inactive) | > 100 µM (inactive) | – | > 100 µM (inactive) | – | – | > 100 µM (inactive)
